Laboratory results published in ChEMBL document CHEMBL3991601, “The target landscape of clinical kinase drugs” (Science, 2017).
Calls of active or inactive are those of the source. Rule as the data show it, for most assays here: actives have a measured Kd and inactives only a lower limit.

Tests used:
[1] = target: T1, Very long-chain specific acyl-CoA dehydrogenase, mitochondrial (Homo sapiens, UniProt P49748)
T1 sequence (P49748 whole entry): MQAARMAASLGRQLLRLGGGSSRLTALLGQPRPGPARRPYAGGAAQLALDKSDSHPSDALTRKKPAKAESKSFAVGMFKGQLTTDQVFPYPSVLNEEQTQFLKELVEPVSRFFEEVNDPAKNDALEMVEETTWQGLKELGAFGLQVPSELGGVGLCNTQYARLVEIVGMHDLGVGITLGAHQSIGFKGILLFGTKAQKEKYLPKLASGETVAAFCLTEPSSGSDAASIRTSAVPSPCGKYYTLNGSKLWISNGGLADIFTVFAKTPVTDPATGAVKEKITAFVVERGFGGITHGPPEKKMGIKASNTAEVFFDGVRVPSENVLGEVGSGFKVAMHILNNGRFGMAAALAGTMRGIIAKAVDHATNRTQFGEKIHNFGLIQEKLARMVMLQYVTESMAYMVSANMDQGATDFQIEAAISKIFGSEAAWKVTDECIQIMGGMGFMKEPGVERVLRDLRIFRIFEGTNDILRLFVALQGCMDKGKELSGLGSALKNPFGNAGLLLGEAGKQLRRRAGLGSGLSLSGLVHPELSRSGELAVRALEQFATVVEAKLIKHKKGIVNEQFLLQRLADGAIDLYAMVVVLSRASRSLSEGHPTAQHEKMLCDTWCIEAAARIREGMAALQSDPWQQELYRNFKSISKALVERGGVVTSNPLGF

[2] = target: T2, Peroxisomal acyl-coenzyme A oxidase 1 (Homo sapiens, UniProt Q15067)
T2 sequence (Q15067 whole entry): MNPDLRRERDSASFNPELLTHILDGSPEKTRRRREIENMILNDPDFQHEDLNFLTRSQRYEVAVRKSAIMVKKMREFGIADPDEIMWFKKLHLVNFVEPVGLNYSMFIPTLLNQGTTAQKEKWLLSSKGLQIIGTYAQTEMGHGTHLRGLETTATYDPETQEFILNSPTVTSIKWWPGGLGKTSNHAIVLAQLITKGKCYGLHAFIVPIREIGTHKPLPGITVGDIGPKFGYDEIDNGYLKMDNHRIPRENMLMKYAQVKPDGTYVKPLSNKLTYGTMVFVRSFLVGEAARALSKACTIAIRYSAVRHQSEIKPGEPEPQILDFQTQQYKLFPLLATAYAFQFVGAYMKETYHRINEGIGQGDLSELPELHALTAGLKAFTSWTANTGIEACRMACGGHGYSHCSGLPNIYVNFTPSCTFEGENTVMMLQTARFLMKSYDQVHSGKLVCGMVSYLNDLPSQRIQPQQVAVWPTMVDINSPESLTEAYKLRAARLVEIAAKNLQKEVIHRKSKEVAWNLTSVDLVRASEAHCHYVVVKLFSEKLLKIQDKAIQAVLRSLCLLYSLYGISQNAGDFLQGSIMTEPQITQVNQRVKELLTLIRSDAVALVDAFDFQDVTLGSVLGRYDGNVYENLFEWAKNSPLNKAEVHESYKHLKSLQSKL

Deoxycytidine kinase = Deoxycytidine kinase (Homo sapiens, UniProt P27707)
[3] = target: Epithelial discoidin domain-containing receptor 1 (Homo sapiens, UniProt Q08345)
[4] = target: Mitogen-activated protein kinase kinase kinase kinase 5 (Homo sapiens, UniProt Q9Y4K4)
[5] = target: MAP kinase-activated protein kinase 2 (Homo sapiens, UniProt P49137)
[6] = target: T3, Phosphorylase b kinase gamma catalytic chain, liver/testis isoform (Homo sapiens, UniProt P15735)
T3 sequence (P15735 whole entry): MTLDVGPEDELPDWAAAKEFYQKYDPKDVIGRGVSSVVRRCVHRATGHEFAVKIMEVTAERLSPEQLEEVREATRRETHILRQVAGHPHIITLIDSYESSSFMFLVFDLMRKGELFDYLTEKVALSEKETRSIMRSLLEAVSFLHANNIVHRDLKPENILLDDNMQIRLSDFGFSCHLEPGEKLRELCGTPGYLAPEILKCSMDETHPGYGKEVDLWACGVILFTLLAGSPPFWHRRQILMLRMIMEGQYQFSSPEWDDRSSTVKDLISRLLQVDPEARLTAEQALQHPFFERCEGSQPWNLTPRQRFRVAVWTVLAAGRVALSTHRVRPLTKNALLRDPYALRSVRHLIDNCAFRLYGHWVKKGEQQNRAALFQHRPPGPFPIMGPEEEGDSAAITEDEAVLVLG

[7] = target: T4, Serine/threonine-protein kinase ICK (Homo sapiens, UniProt Q9UPZ9)
T4 sequence (Q9UPZ9 whole entry): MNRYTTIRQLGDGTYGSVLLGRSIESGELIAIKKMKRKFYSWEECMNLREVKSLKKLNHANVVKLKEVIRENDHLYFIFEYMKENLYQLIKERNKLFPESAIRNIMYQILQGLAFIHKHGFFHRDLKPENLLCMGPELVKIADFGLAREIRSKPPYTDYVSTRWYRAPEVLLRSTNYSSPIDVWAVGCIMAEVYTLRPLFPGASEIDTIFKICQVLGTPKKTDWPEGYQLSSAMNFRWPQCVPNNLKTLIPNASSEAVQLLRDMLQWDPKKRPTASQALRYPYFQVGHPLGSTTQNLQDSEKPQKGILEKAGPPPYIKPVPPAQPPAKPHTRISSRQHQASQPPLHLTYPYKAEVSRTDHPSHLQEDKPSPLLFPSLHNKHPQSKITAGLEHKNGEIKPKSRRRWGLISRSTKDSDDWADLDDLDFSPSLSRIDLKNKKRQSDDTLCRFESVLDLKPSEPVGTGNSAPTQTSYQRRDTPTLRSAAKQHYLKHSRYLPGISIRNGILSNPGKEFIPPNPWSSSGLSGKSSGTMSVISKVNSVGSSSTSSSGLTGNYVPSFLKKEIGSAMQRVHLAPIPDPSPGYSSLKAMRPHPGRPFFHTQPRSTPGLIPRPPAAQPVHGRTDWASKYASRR
Also: in the data inactive means no Kd found up to 30 µM.

Mitogen-activated protein kinase kinase kinase kinase 5, sequence (Q9Y4K4 whole entry): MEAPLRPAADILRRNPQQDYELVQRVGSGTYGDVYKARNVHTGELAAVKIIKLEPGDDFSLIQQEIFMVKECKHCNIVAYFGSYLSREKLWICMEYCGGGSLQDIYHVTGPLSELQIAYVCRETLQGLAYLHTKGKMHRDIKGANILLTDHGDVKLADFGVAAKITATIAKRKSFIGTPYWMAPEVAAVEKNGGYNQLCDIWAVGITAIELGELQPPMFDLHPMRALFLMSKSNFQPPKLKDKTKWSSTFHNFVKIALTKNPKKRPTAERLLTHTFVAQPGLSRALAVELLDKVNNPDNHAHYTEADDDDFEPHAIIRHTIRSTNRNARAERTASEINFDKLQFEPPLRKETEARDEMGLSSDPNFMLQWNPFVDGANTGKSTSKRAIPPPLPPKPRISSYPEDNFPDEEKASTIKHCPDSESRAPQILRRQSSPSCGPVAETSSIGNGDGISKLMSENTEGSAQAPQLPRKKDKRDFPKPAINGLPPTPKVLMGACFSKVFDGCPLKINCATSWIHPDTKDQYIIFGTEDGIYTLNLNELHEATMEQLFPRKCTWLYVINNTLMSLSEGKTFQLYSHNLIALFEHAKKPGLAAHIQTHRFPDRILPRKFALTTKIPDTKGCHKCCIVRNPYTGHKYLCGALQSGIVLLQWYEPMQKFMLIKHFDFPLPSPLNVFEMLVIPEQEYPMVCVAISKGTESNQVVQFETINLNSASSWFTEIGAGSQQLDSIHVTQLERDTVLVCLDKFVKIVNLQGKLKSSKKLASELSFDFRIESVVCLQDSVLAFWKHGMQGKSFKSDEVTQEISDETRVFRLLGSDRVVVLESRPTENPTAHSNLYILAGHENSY
Epithelial discoidin domain-containing receptor 1, sequence (Q08345 whole entry, the tested form may be a part): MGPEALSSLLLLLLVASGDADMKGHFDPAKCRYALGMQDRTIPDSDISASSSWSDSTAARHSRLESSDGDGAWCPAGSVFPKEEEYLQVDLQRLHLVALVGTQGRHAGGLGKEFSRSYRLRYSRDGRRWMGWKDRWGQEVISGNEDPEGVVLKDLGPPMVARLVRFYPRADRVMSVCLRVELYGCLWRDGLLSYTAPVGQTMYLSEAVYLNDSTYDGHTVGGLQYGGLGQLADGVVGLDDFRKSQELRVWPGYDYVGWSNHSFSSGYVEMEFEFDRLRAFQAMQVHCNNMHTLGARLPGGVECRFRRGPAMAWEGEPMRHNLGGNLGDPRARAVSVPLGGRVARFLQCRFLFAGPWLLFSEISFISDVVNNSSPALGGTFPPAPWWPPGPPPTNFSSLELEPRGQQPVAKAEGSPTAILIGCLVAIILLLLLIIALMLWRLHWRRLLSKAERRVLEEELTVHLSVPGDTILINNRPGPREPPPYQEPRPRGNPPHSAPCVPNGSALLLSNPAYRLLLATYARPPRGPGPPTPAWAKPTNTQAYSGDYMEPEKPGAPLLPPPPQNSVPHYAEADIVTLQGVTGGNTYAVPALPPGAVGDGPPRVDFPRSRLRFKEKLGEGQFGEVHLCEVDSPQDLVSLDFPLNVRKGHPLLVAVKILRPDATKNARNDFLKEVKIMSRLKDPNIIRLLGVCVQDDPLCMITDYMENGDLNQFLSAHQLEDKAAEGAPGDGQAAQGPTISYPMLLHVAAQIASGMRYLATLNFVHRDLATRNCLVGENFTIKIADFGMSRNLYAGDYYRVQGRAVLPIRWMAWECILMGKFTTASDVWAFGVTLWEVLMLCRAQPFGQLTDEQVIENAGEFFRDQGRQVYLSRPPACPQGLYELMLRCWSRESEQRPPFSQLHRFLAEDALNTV
Deoxycytidine kinase, sequence (P27707 whole entry, the tested form may be a part): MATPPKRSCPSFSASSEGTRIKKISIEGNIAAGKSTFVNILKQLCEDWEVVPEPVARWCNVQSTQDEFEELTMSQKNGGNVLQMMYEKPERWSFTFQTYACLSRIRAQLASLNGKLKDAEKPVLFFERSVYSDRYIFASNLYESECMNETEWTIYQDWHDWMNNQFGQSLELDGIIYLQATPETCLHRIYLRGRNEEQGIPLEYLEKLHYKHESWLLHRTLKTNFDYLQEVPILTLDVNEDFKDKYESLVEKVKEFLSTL
MAP kinase-activated protein kinase 2, sequence (P49137 whole entry, canonical isoform): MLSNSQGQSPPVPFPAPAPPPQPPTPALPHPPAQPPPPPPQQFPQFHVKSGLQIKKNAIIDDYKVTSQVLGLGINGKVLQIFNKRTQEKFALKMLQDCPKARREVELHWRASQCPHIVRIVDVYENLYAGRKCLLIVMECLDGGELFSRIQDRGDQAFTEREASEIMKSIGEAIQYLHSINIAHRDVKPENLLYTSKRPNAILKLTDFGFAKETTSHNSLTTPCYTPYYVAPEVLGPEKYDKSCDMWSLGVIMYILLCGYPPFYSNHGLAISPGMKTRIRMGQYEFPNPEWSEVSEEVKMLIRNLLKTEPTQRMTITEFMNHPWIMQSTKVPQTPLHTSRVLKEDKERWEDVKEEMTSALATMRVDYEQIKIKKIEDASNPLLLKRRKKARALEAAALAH

Compound	Kd [1]	Kd [2]	Kd (Deoxycytidine kinase)	Kd [3]	Kd [4]	Kd [5]	Kd [6]	Kd [7]
Cc1c(NC(=O)OC[C@@H]2COCCN2)cn2ncnc(Nc3ccc4c(cnn4Cc4cccc(F)c4)c3)c12 [AC-480]	> 30 µM (inactive)	> 30 µM (inactive)	> 30 µM (inactive)	> 30 µM (inactive)	> 30 µM (inactive)	> 30 µM (inactive)	> 30 µM (inactive)	–
CN(c1ncccc1CNc1nc(Nc2ccc3c(c2)CC(=O)N3)ncc1C(F)(F)F)S(C)(=O)=O [PF-00562271]	> 30 µM (inactive)	> 30 µM (inactive)	> 30 µM (inactive)	> 30 µM (inactive)	–	–	–	> 30 µM (inactive)
NC[C@@](O)(c1ccc(Cl)cc1)c1ccc(-c2cn[nH]c2)cc1 [AT-13148]	> 30 µM (inactive)	> 30 µM (inactive)	> 30 µM (inactive)	> 30 µM (inactive)	> 30 µM (inactive)	> 30 µM (inactive)	> 30 µM (inactive)	–
Cn1c(=O)n(-c2ccc(C(C)(C)C#N)cc2)c2c3cc(-c4cnc5ccccc5c4)ccc3ncc21 [DACTOLISIB]	> 30 µM (inactive)	> 30 µM (inactive)	> 30 µM (inactive)	> 30 µM (inactive)	–	> 30 µM (inactive)	> 30 µM (inactive)	> 30 µM (inactive)
COc1cc(F)c(F)c(Nc2ccc(I)cc2F)c1NS(=O)(=O)C1(C[C@H](O)CO)CC1 [REFAMETINIB]	> 30 µM (inactive)	–	> 30 µM (inactive)	> 30 µM (inactive)	> 30 µM (inactive)	> 30 µM (inactive)	> 30 µM (inactive)	> 30 µM (inactive)
COc1cc2c(Oc3ccc4[nH]c(C)cc4c3F)ncnc2cc1OCCCN1CCCC1 [CEDIRANIB]	> 30 µM (inactive)	> 30 µM (inactive)	> 30 µM (inactive)	–	–	–	–	–
CN1CCN(c2nc(C3=C(c4c[nH]c5ccccc45)C(=O)NC3=O)c3ccccc3n2)CC1 [SOTRASTAURIN]	> 30 µM (inactive)	–	> 30 µM (inactive)	> 30 µM (inactive)	–	> 30 µM (inactive)	> 30 µM (inactive)	6.69 µM
C=CCn1c(=O)c2cnc(Nc3ccc(N4CCN(C)CC4)cc3)nc2n1-c1cccc(C(C)(C)O)n1 [ADAVOSERTIB]	> 30 µM (inactive)	> 30 µM (inactive)	> 30 µM (inactive)	> 30 µM (inactive)	–	> 30 µM (inactive)	> 30 µM (inactive)	> 30 µM (inactive)
CNC(=O)c1ccc(Nc2ncc(C(F)(F)F)c(NCc3nccnc3N(C)S(C)(=O)=O)n2)cc1 [DEFACTINIB]	> 30 µM (inactive)	–	> 30 µM (inactive)	> 30 µM (inactive)	> 30 µM (inactive)	> 30 µM (inactive)	> 30 µM (inactive)	> 30 µM (inactive)
COc1cc2c(N3CCN(C(=O)Nc4ccc(OC(C)C)cc4)CC3)ncnc2cc1OCCCN1CCCCC1 [TANDUTINIB]	> 30 µM (inactive)	> 30 µM (inactive)	> 30 µM (inactive)	–	–	–	–	–
CN(C)C/C=C/C(=O)Nc1cc2c(Nc3ccc(F)c(Cl)c3)ncnc2cc1O[C@H]1CCOC1 [AFATINIB]	> 30 µM (inactive)	> 30 µM (inactive)	> 30 µM (inactive)	–	–	–	–	–
CCc1nc(C(N)=O)c(Nc2ccc(N3CCC(N4CCN(C)CC4)CC3)c(OC)c2)nc1NC1CCOCC1 [GILTERITINIB]	> 30 µM (inactive)	–	> 30 µM (inactive)	> 30 µM (inactive)	3.12 µM (active)	> 30 µM (inactive)	–	> 30 µM (inactive)
CCN1CCN(Cc2ccc(Nc3ncc(F)c(-c4cc(F)c5nc(C)n(C(C)C)c5c4)n3)nc2)CC1 [ABEMACICLIB]	> 30 µM (inactive)	–	> 30 µM (inactive)	> 30 µM (inactive)	> 30 µM (inactive)	> 30 µM (inactive)	> 30 µM (inactive)	0.053 µM (active)
O=c1[nH]c([C@@H]2CCCN2)nc2c1oc1ccc(Cl)cc12	> 30 µM (inactive)	> 30 µM (inactive)	> 30 µM (inactive)	> 30 µM (inactive)	> 30 µM (inactive)	> 30 µM (inactive)	> 30 µM (inactive)	–
N#CCNC(=O)c1ccc(-c2ccnc(Nc3ccc(N4CCOCC4)cc3)n2)cc1 [MOMELOTINIB]	> 30 µM (inactive)	–	> 30 µM (inactive)	> 30 µM (inactive)	–	> 30 µM (inactive)	> 30 µM (inactive)	–
Cn1cnc2c(F)c(Nc3ccc(Br)cc3Cl)c(C(=O)NOCCO)cc21 [SELUMETINIB]	> 30 µM (inactive)	> 30 µM (inactive)	> 30 µM (inactive)	–	–	–	–	–
CC1(C)CNc2cc(NC(=O)c3cccnc3NCc3ccncc3)ccc21 [MOTESANIB]	> 30 µM (inactive)	> 30 µM (inactive)	> 30 µM (inactive)	–	–	–	–	–
S=C(NCc1ccc2c(c1)OCO2)N1CCN(c2ncnc3c2oc2ccccc23)CC1 [AMUVATINIB]	> 30 µM (inactive)	> 30 µM (inactive)	> 30 µM (inactive)	> 30 µM (inactive)	> 30 µM (inactive)	> 30 µM (inactive)	> 30 µM (inactive)	–
O=S(=O)(c1cccc2cnccc12)N1CCCNCC1 [FASUDIL]	> 30 µM (inactive)	> 30 µM (inactive)	> 30 µM (inactive)	> 30 µM (inactive)	–	–	> 30 µM (inactive)	–
O=C(NC[C@H](O)CO)c1ccncc1Nc1ccc(I)cc1F [PIMASERTIB]	> 30 µM (inactive)	> 30 µM (inactive)	> 30 µM (inactive)	> 30 µM (inactive)	> 30 µM (inactive)	> 30 µM (inactive)	> 30 µM (inactive)	–

The next lines start with results.

Kd [1]	Kd [2]	Kd (Deoxycytidine kinase)	Compound	Kd [3]	Kd [4]	Kd [5]	Kd [6]	Kd [7]
> 30 µM (inactive)	> 30 µM (inactive)	> 30 µM (inactive)	COc1cccc(Nc2ncnn3ccc(CN4CC[C@@H](N)[C@H](O)C4)c23)c1 [BMS-690514]	> 30 µM (inactive)	–	> 30 µM (inactive)	4.62 µM (active)	> 30 µM (inactive)
> 30 µM (inactive)	–	> 30 µM (inactive)	Cc1cc(C(=O)Nc2cc(Oc3ccc4nc(NC(=O)C5CC5)cn4n3)ccc2C)n(C)n1 [TAK-593]	14.7 µM (active)	> 30 µM (inactive)	> 30 µM (inactive)	> 30 µM (inactive)	> 30 µM (inactive)
> 30 µM (inactive)	–	> 30 µM (inactive)	C[C@@]1(C(=O)Nc2ccc(F)nc2)CCCN1c1nc(Nc2cc(C3CC3)n[nH]2)c2cccn2n1 [BMS-754807]	–	–	–	–	–
